Where “and” joins values, the source holds several entries; their conditions need not be identical. Equal entries are not always repeated. Where two headings read alike, the source gives them in different places.
Assays:
Format in all cases: biochemical
mAC4 = target: T1, mAC4 (Homo sapiens, UniProt Q8NFM4); assay: AC assay, Gsα-stimulated mAC4 in membranes from transfected HEK293 cells; settings: for activity [%] (100% = 300nM Gsα stimulation): mAC4
T1 construct: Human mAC genes were from GenScript and fitted with a C-terminal FLAG-tag; FLAG (C); made in house; host or cells: HEK293, permanently transfected; membrane preparation
T1 sequence (Q8NFM4 1-1077): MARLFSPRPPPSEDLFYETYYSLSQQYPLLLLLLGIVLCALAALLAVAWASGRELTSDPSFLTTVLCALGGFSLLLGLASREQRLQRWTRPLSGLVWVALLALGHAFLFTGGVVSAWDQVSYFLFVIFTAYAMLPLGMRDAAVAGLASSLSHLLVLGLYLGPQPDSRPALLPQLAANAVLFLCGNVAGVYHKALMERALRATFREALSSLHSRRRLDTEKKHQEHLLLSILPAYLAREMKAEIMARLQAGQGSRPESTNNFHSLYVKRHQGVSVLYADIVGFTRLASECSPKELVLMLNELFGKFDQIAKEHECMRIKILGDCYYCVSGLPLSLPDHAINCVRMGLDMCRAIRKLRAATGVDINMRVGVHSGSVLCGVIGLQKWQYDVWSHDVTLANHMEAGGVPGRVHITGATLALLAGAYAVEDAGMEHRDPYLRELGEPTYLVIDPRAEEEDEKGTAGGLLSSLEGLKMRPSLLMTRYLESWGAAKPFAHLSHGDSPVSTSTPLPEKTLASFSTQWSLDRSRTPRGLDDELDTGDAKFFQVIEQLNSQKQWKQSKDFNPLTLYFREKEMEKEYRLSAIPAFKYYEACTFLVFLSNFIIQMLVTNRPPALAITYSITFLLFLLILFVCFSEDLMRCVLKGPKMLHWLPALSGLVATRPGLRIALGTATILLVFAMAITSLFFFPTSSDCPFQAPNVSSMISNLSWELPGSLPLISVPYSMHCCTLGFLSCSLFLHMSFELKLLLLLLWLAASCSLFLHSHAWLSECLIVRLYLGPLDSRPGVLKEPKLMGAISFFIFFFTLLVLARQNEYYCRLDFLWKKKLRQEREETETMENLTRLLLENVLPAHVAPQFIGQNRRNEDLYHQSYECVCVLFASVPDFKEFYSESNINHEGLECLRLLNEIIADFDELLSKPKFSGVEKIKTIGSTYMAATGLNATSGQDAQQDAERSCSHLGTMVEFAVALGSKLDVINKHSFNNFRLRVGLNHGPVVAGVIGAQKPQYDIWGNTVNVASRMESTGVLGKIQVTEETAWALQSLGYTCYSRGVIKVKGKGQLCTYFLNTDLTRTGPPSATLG
Outline: (§1)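 cAMP detected with a Cisbio kit, calibrated by a cAMP standard curve each run. Reaction: 1 mM ATP, 2 mM MgCl2, 3 mM creatine phosphate, 60 μg/ml creatine kinase, 50 mM MOPS pH 7.5. Enzyme source: membranes of stably transfected HEK293 (G418-selected) carrying FLAG-tagged human AC.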

mAC1 = target: T2, mAC1 (Homo sapiens, UniProt Q08828); assay: AC assay, Gsα-stimulated mAC1 in membranes from transfected HEK293 cells; settings: for activity [%] (100% = 300nM Gsα stimulation): mAC1
T2 construct: Human mAC genes were from GenScript and fitted with a C-terminal FLAG-tag; FLAG (C); made in house; host or cells: HEK293, permanently transfected; membrane preparation
T2 sequence (Q08828 whole entry): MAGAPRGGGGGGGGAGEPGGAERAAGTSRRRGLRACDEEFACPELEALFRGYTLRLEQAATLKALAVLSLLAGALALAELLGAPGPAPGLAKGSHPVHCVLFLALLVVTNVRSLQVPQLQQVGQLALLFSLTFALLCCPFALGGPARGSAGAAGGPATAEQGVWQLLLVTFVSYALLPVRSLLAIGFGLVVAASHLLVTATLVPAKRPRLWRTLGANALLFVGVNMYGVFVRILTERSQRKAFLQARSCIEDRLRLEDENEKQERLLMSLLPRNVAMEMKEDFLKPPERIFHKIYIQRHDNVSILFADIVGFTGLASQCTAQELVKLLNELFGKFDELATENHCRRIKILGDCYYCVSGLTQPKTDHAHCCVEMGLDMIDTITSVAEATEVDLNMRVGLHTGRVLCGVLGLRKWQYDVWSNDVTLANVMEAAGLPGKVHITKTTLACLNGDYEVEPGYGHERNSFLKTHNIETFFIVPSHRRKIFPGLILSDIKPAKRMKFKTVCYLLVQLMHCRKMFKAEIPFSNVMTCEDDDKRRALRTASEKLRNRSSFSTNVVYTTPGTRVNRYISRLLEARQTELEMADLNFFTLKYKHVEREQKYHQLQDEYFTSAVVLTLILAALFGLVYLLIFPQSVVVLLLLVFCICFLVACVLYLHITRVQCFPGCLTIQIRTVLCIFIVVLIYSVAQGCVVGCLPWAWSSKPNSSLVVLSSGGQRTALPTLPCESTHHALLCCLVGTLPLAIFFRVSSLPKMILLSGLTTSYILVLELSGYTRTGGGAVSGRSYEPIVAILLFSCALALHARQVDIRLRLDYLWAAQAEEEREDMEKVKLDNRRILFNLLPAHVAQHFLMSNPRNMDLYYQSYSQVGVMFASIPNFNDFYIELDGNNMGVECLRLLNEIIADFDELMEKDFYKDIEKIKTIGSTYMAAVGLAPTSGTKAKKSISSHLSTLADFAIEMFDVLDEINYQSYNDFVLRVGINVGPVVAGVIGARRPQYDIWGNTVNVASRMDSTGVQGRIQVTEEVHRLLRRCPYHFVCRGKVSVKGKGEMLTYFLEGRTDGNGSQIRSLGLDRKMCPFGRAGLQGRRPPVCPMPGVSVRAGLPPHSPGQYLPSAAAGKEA
Outline: as §1

mAC5 = target: T3, mAC5 (Homo sapiens, UniProt O95622); assay: AC assay, Gsα-stimulated mAC5 in membranes from transfected HEK293 cells; settings: for activity [%] (100% = 300nM Gsα stimulation): mAC5
T3 construct: Human mAC genes were from GenScript and fitted with a C-terminal FLAG-tag; FLAG (C); made in house; host or cells: HEK293, permanently transfected; membrane preparation
T3 sequence (O95622 whole entry): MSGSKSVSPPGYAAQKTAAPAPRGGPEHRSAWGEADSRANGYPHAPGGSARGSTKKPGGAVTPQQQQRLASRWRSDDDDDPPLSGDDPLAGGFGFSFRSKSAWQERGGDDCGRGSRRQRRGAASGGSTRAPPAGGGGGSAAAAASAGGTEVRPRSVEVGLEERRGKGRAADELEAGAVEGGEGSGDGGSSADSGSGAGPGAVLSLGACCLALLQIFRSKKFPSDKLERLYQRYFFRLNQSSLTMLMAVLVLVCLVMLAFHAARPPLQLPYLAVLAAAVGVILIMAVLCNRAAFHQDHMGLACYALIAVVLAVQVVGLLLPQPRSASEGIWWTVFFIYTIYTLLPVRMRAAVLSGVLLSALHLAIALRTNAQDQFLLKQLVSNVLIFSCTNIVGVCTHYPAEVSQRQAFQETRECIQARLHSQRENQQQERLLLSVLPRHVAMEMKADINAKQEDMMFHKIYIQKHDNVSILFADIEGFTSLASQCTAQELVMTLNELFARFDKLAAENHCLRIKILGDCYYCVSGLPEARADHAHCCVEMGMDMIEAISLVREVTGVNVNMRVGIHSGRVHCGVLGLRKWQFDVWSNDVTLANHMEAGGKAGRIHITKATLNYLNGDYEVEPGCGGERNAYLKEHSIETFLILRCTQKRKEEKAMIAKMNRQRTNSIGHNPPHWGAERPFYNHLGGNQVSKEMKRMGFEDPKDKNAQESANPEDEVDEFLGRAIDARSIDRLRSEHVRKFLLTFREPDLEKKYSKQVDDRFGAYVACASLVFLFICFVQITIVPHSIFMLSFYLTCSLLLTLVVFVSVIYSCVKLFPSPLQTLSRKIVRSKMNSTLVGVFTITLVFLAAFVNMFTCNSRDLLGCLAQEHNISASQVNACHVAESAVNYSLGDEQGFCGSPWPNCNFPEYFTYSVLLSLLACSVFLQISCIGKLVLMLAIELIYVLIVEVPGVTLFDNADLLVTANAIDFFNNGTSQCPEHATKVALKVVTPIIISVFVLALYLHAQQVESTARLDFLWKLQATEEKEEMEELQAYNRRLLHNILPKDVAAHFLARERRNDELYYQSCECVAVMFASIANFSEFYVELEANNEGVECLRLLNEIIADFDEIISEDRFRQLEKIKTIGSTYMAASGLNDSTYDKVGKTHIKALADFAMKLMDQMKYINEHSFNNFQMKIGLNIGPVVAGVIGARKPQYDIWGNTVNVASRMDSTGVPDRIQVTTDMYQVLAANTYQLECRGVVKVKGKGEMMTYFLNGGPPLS
Outline: as §1

mAC3 = target: T4, mAC3 (Homo sapiens, UniProt O60266); assay: AC assay, Gsα-stimulated mAC3 in membranes from transfected HEK293 cells; settings: for activity [%] (100% = 300nM Gsα stimulation): mAC3
T4 construct: Human mAC genes were from GenScript and fitted with a C-terminal FLAG-tag; FLAG (C); made in house; host or cells: HEK293, permanently transfected; membrane preparation
Outline: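 EC50 and IC50 values come from cAMP production, read with a Cisbio cAMP kit and converted via a standard curve. Assay mix held 1 mM ATP, 2 mM MgCl2, 3 mM creatine phosphate and 60 μg/ml creatine kinase in 50 mM MOPS pH 7.5, using transfected HEK293 membranes.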

mAC8 = target: T5, mAC8 (Homo sapiens, UniProt P40145); assay: AC assay, Gsα-stimulated mAC8 in membranes from transfected HEK293 cells; settings: 20µM fatty acid concentration
T5 construct: Human mAC genes were from GenScript and fitted with a C-terminal FLAG-tag; FLAG (C); made in house; host or cells: HEK293, permanently transfected; membrane preparation
T5 sequence (P40145 whole entry): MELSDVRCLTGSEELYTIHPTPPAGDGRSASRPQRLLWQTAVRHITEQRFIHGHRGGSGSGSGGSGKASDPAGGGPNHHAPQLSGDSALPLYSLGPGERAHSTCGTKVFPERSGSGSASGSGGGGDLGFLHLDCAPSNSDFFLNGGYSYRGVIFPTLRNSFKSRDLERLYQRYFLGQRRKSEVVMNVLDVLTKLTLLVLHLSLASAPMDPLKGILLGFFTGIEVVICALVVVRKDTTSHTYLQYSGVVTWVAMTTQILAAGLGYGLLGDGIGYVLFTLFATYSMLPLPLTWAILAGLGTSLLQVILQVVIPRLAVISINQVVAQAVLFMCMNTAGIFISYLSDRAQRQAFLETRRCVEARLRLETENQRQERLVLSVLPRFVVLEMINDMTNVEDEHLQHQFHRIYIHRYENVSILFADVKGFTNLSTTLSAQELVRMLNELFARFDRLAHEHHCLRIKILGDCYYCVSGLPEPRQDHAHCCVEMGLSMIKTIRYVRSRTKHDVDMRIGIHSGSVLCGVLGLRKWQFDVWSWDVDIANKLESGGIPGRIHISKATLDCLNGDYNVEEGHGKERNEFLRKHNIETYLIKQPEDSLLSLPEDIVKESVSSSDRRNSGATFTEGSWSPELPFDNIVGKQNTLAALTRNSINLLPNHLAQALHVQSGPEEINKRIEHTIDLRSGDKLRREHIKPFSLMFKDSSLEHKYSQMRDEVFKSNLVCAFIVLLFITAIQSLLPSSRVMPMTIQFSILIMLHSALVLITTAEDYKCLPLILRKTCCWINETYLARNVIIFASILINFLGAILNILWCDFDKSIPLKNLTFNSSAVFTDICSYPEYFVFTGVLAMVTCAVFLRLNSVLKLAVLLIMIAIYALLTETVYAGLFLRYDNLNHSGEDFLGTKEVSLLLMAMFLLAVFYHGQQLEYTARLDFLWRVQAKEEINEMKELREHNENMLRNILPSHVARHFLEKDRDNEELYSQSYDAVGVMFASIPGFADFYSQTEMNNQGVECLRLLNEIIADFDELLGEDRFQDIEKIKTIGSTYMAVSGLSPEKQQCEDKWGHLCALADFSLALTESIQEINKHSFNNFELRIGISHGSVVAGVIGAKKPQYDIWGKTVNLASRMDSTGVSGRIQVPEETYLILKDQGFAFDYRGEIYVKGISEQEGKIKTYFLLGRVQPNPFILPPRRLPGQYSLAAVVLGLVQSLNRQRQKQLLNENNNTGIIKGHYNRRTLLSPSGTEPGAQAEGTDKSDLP
Outline: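 Adenylyl cyclase activity was measured in 100,000 × g membrane fractions prepared from HEK293 cells permanently transfected with C-terminally FLAG-tagged human AC isoforms. Assays contained 1 mM ATP and 2 mM MgCl2 with an ATP-regenerating system at pH 7.5.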

[1] = 100µM Anandamide concentration, Figure 9 D
[2] = 6 µM, 300 nM Gsα, single experiments
[3] = 30 µM, 300 nM Gsα, single experiments
[4] = 100 µM, 300 nM Gsα, single experiments

CCCCC/C=C\C/C=C\C/C=C\C/C=C\CCCC(=O)NCCO [Anandamide, arachidonoylethanolamide]
Effect of anandamide on Gsα-stimulated mAC4 (mAC4; concentration–response, higher concentrations, in words): distinctly not
activity [%] (100% = 300nM Gsα stimulation) (mAC4; Anandamide 0.1 µM): 100%
activity [%] (100% = 300nM Gsα stimulation) (mAC4; Anandamide 3 µM): 86% and 113% and 96% and 121% and 82%
activity [%] (100% = 300nM Gsα stimulation) (mAC4; Anandamide 30 µM): 107%
IC50 (mAC1): 29 µM
activity [%] (100% = 300nM Gsα stimulation) (mAC1; Anandamide 0.1 µM): 100%
activity [%] (100% = 300nM Gsα stimulation) (mAC1; Anandamide 1 µM): 81% and 83% and 116% and 100% and 88%
activity [%] (100% = 300nM Gsα stimulation) (mAC1; Anandamide 3 µM): 98% and 83% and 114% and 101% and 97%
activity [%] (100% = 300nM Gsα stimulation) (mAC1; Anandamide 10 µM): 92% and 80% and 101% and 94% and 81%
activity [%] (100% = 300nM Gsα stimulation) (mAC1; Anandamide 30 µM): 41% and 63% and 74% and 78% and 71%
activity [%] (100% = 300nM Gsα stimulation) (mAC1; Anandamide 60 µM): 39% and 40% and 53% and 59% and 57%
IC50 (mAC5; attenuation of 300 nM Gsα-stimulated activity): 42 µM
activity [%] (100% = 300nM Gsα stimulation) (mAC5; [1]): 55% and 58% and 70% and 40% and 56% and 45% and 65% and 60%
activity [%] (100% = 300nM Gsα stimulation) (mAC5; Anandamide 0.1 µM): 100%
activity [%] (100% = 300nM Gsα stimulation) (mAC5; Anandamide 0.5 µM): 96% and 115% and 93% and 114% and 127%
activity [%] (100% = 300nM Gsα stimulation) (mAC5; Anandamide 3 µM): 122% and 77%
activity [%] (100% = 300nM Gsα stimulation) (mAC5; Anandamide 8 µM): 101%
activity [%] (100% = 300nM Gsα stimulation) (mAC5; Anandamide 10 µM): 99%
activity [%] (100% = 300nM Gsα stimulation) (mAC5; Anandamide 35 µM): 78% and 77% and 119%
activity [%] (100% = 300nM Gsα stimulation) (mAC5; Anandamide 40 µM): 58% and 74%
activity [%] (100% = 300nM Gsα stimulation) (mAC5; Anandamide 80 µM): 47%
activity [%] (100% = 300nM Gsα stimulation) (mAC3; [1]): 165%
activity [%] (100% = 300nM Gsα stimulation) (mAC3; Anandamide 0.1 µM): 100%
activity [%] (100% = 300nM Gsα stimulation) (mAC3; Anandamide 1 µM): 87% and 101% and 117% and 100% and 94% and 127% and 77%
activity [%] (100% = 300nM Gsα stimulation) (mAC3; Anandamide 10 µM): 105% and 80% and 130% and 120% and 88% and 111% and 112% and 137%
activity [%] (100% = 300nM Gsα stimulation) (mAC3; Anandamide 30 µM): 96% and 65% and 85% and 72% and 94% and 68% and 100% and 101%

CCCCC/C=C\C/C=C\C/C=C\C/C=C\CCCC(=O)O [Arachidonic acid, Arachidonic ((5Z,8Z,11Z,14Z)-eicosatetraenoic) acid]
IC50 (mAC4): 36 µM
Effect of lipid on 300 nM Gsα-stimulated mAC4 (mAC4; 20 µM, in words): significantly attenuated
activity [%] (100% = 300nM Gsα stimulation) (mAC4; 1 µM, 300 nM Gsα, single experiments): 68% and 108% and 85% and 103% and 89% and 87% and 67% and 75%
activity [%] (100% = 300nM Gsα stimulation) (mAC4; 3 µM, 300 nM Gsα, single experiments): 72% and 95% and 69% and 73% and 97% and 106% and 108%
activity [%] (100% = 300nM Gsα stimulation) (mAC4; [2]): 70% and 85% and 107% and 83% and 91% and 126%
activity [%] (100% = 300nM Gsα stimulation) (mAC4; [3]): 84% and 74% and 88%
activity [%] (100% = 300nM Gsα stimulation) (mAC4; [4]): 22% and 14% and 13%
Effect of lipid on 300 nM Gsα-stimulated mAC1 (mAC1; 20 µM, in words): significantly attenuated
IC50 (mAC1; attenuation of 300 nM Gsα-stimulated activity, read-out: IC50 for mAC1): 23 µM
activity [%] (100% = 300nM Gsα stimulation) (mAC1; [2]): 84% and 119% and 80% and 96% and 100% and 86% and 114% and 97%
activity [%] (100% = 300nM Gsα stimulation) (mAC1; [3]): 58% and 69% and 46%
activity [%] (100% = 300nM Gsα stimulation) (mAC1; 60 µM, 300 nM Gsα, single experiments): 12% and 11%
activity [%] (100% = 300nM Gsα stimulation) (mAC1; [4]): 12% and 2% and 3%
mAC5 activity [%] (100% = 300nM Gsα stimulation) (mAC5; 20µM fatty acid concentration): 97% and 73% and 120% and 131% and 110%
mAC3 activity [%] (100% = 300nM Gsα stimulation) (mAC3; fatty acid 20 µM, individual experiments): 115% and 168% and 182% and 127%
mAC8 activity [%] (100% = 300nM Gsα stimulation) (mAC8): 90% and 106% and 87%

— PMC11606603, “The membrane domains of mammalian adenylyl cyclases are lipid receptors” (eLife, 2024)
